Source: patent US8030506B2, “Tumor selective and biodegradable cyclotriphosphazene-platinum(II) conjugate anticancer agent, and preparation method thereof” (Nanohybrid Co., Ltd, priority 2007, dated 2011)

Tests used:
Test in all cases: In vitro cytotoxicity against human cancer cell lines
Conditions in all cases: read-out: In vitro cytotoxicities, IC50
[1] = system: SK-OV3 (ovarian cancer)
[2] = system: MCF (breast cancer)
[3] = system: A-431 (vulvar cancer)
[4] = system: MES-SA (uterine cancer)

Compound: N.N.O=C([O-])C1(C(=O)[O-])CCC1.[Pt+2] [Carboplatin, carboplatin]
- IC50 [1]: 76.5 µM
- IC50 [2]: 48 µM
- IC50 [3]: 45.9 µM
- IC50 [4]: 48 µM
